Reference: the supplement of paper PMC10307832

Tests used:
Assay in all cases: relative viability (nuclei count vs DMSO), 5 days (fraction); higher = more cells survive
NCI-H2023 = tested on: NCI-H2023
Method in brief: (§1)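 Each reported value is a median over duplicate plates. It expresses relative viability: treated-well nuclei count divided by vehicle-well nuclei count. Lung cancer cell lines in 1536-well plates were dosed by pin tool a day after seeding, alone with one drug or with a fixed anchor-drug dose plus five library-drug doses (not always all listed) in √10 steps, and nuclei were counted after 5 days.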

NCI-H1793 = tested on: NCI-H1793
Method in brief: as §1

SK-LU-1 = tested on: SK-LU-1
Method in brief: as §1

EMC-BAC-2 = tested on: EMC-BAC-2
Method in brief: as §1

HCC-78 = tested on: HCC-78
Method in brief: as §1

LC-2-ad = tested on: LC-2-ad
Method in brief: as §1

NCI-H2405 = tested on: NCI-H2405
Method in brief: as §1

NCI-H2009 = tested on: NCI-H2009
Method in brief: as §1

UMC-11 = tested on: UMC-11
Method in brief: as §1

HCC-15 = tested on: HCC-15
Method in brief: as §1

NCI-H23 = tested on: NCI-H23
Method in brief: as §1

COR-L23 = tested on: COR-L23
Method in brief: as §1

NCI-H1993 = tested on: NCI-H1993
Method in brief: as §1

ABC-1 = tested on: ABC-1
Method in brief: as §1

NCI-H1944 = tested on: NCI-H1944
Method in brief: as §1

HCC-366 = tested on: HCC-366
Method in brief: as §1

NCI-H2228 = tested on: NCI-H2228
Method in brief: as §1

NCI-H2126 = tested on: NCI-H2126
Method in brief: as §1

NCI-H838 = tested on: NCI-H838
Method in brief: as §1

NCI-H1734 = tested on: NCI-H1734
Method in brief: as §1

HARA = tested on: HARA
Method in brief: as §1

A-427 = tested on: A-427
Method in brief: as §1

Compound Oc1nc(-c2ccc(C(F)(F)F)cc2)nc2c1CSCC2 [XAV939] + CS(=O)(=O)CCNCc1ccc(-c2ccc3ncnc(Nc4ccc(OCc5cccc(F)c5)c(Cl)c4)c3c2)o1 [Lapatinib] (partner 2 µM) has a relative viability (NCI-H2023; first compound 0.08 µM) of 0.737, a relative viability (NCI-H2023; first compound 0.253 µM) of 0.723 and a relative viability (NCI-H2023; first compound 0.8 µM) of 0.674. For the same compound, the relative viability (NCI-H2023; first compound 2.53 µM) was 0.622, the relative viability (NCI-H1793; first compound 0.08 µM) was 0.892 and the relative viability (NCI-H1793; first compound 0.253 µM) was 0.602. For the same compound, the relative viability (NCI-H1793; first compound 0.8 µM) was 0.714, the relative viability (NCI-H1793; first compound 2.53 µM) was 0.877 and the relative viability (SK-LU-1; first compound 0.08 µM) was 0.858. For the same compound, the relative viability (SK-LU-1; first compound 0.253 µM) was 0.845, the relative viability (SK-LU-1; first compound 0.8 µM) was 0.863 and the relative viability (SK-LU-1; first compound 2.53 µM) was 0.906. It also gave a relative viability (EMC-BAC-2; first compound 0.08 µM) of 1.01, a relative viability (EMC-BAC-2; first compound 0.253 µM) of 0.821 and a relative viability (EMC-BAC-2; first compound 0.8 µM) of 0.837. The relative viability (EMC-BAC-2; first compound 2.53 µM) was 0.681, the relative viability (HCC-78; first compound 0.08 µM) was 0.868 and the relative viability (HCC-78; first compound 0.253 µM) was 0.508. It also gave a relative viability (HCC-78; first compound 0.8 µM) of 0.326, a relative viability (HCC-78; first compound 2.53 µM) of 0.457 and a relative viability (LC-2-ad; first compound 0.08 µM) of 0.886. The relative viability (LC-2-ad; first compound 0.253 µM) was 0.749, the relative viability (LC-2-ad; first compound 0.8 µM) was 0.954 and the relative viability (LC-2-ad; first compound 2.53 µM) was 0.862. The relative viability (NCI-H2405; first compound 0.08 µM) was 1.25, the relative viability (NCI-H2405; first compound 0.253 µM) was 1.02 and the relative viability (NCI-H2405; first compound 0.8 µM) was 0.972. The relative viability (NCI-H2405; first compound 2.53 µM) was 1.1, the relative viability (NCI-H2009; first compound 0.08 µM) was 1.08 and the relative viability (NCI-H2009; first compound 0.253 µM) was 0.819. For the same compound, the relative viability (NCI-H2009; first compound 0.8 µM) was 0.842, the relative viability (NCI-H2009; first compound 2.53 µM) was 0.771 and the relative viability (UMC-11; first compound 0.08 µM) was 1.15. The relative viability (UMC-11; first compound 0.253 µM) was 0.742, the relative viability (UMC-11; first compound 0.8 µM) was 0.97 and the relative viability (UMC-11; first compound 2.53 µM) was 0.921. The relative viability (HCC-15; first compound 0.08 µM) was 1.02, the relative viability (HCC-15; first compound 0.253 µM) was 0.774 and the relative viability (HCC-15; first compound 0.8 µM) was 0.829. For the same compound, the relative viability (HCC-15; first compound 2.53 µM) was 0.806, the relative viability (NCI-H23; first compound 0.08 µM) was 1.17 and the relative viability (NCI-H23; first compound 0.253 µM) was 1.01. It also gave a relative viability (NCI-H23; first compound 0.8 µM) of 0.966, a relative viability (NCI-H23; first compound 2.53 µM) of 0.932 and a relative viability (COR-L23; first compound 0.08 µM) of 1.04. It also gave a relative viability (COR-L23; first compound 0.253 µM) of 0.924, a relative viability (COR-L23; first compound 0.8 µM) of 0.932 and a relative viability (COR-L23; first compound 2.53 µM) of 0.89. For the same compound, the relative viability (NCI-H1993; first compound 0.8 µM) was 0.866, the relative viability (NCI-H1993; first compound 2.53 µM) was 0.702 and the relative viability (ABC-1; first compound 0.08 µM) was 1.34. It also gave a relative viability (ABC-1; first compound 0.253 µM) of 1.08, a relative viability (ABC-1; first compound 0.8 µM) of 1.26 and a relative viability (ABC-1; first compound 2.53 µM) of 0.657. It also gave a relative viability (NCI-H1944; first compound 0.08 µM) of 1.16, a relative viability (NCI-H1944; first compound 0.253 µM) of 0.865 and a relative viability (NCI-H1944; first compound 0.8 µM) of 0.834. It also gave a relative viability (NCI-H1944; first compound 2.53 µM) of 0.679, a relative viability (HCC-366; first compound 0.08 µM) of 1.23 and a relative viability (HCC-366; first compound 0.253 µM) of 0.861. It also gave a relative viability (HCC-366; first compound 0.8 µM) of 1.01, a relative viability (HCC-366; first compound 2.53 µM) of 0.96 and a relative viability (NCI-H2228; first compound 0.08 µM) of 1.03. The relative viability (NCI-H2228; first compound 0.253 µM) was 0.922, the relative viability (NCI-H2228; first compound 0.8 µM) was 0.848 and the relative viability (NCI-H2228; first compound 2.53 µM) was 0.928. It also gave a relative viability (NCI-H2126; first compound 0.08 µM) of 0.739, a relative viability (NCI-H2126; first compound 0.253 µM) of 0.583 and a relative viability (NCI-H2126; first compound 0.8 µM) of 0.667. For the same compound, the relative viability (NCI-H2126; first compound 2.53 µM) was 0.585, the relative viability (NCI-H838; first compound 0.08 µM) was 1.13 and the relative viability (NCI-H838; first compound 0.253 µM) was 0.918. For the same compound, the relative viability (NCI-H838; first compound 0.8 µM) was 0.949, the relative viability (NCI-H838; first compound 2.53 µM) was 0.767 and the relative viability (NCI-H1734; first compound 0.08 µM) was 1.34. The relative viability (NCI-H1734; first compound 0.253 µM) was 0.9, the relative viability (NCI-H1734; first compound 0.8 µM) was 0.814 and the relative viability (NCI-H1734; first compound 2.53 µM) was 0.986. It also gave a relative viability (HARA; first compound 0.08 µM) of 0.73, a relative viability (HARA; first compound 0.253 µM) of 0.419 and a relative viability (HARA; first compound 0.8 µM) of 0.402. For the same compound, the relative viability (HARA; first compound 2.53 µM) was 0.606, the relative viability (A-427; first compound 0.08 µM) was 1.09 and the relative viability (A-427; first compound 0.253 µM) was 1.02. It also gave a relative viability (A-427; first compound 0.8 µM) of 1.11 and a relative viability (A-427; first compound 2.53 µM) of 1.03.
